According to patent publication US20060293320A1, “Heteroaryl derivatives for treating viruses” (Genelabs Technologies, Inc., priority 2005, published 2006):

Test system: HCV replicon I389luc-ubi-neo/NS3-3′/ET in ET (Huh-lucubineo-ET) cell line
Assay: Replicon assay (luciferase reporter)
Assay type: cell-based
Details: Hepatitis C virus; tested at 33 μM; ET (Huh-lucubineo-ET) replicon cells, luciferase activity, relative to no compound control; read-out: % inhibition of replication
Procedure: A cell line, ET (Huh-lucubineo-ET) was used for screening of compounds of the present invention for HCV RNA dependent RNA polymerase. The ET cell line was stably transfected with RNA transcripts harboring a I389luc-ubi-neo/NS3-3′/ET; replicon with firefly luciferase-ubiquitin-neomycin phosphotransferase fusion protein and EMCV-IRES driven NS3-5B polyprotein containing the cell culture adaptive mutations (E1202G; T1280I; K1846T) (Krieger at al, 2001 and unpublished). The ET cells were grown in DMEM, supplemented with 10% fetal calf serum, 2 mM Glutamine, Penicillin (100 IU/mL)/Streptomycin (100 μg/mL), 1× nonessential amino acids, and 250 μg/mL G418 (“Geneticin”). They were all available through Life Technologies (Bethesda, Md.). The cells were plated at 0.5-1.0×10^4 cells/well in the 96 well plates and incubated for 24 hrs before adding nucleoside analogs. Then the compounds were added to the cells to achieve a final concentration of 5 or 50 μM. Luciferase activity was measured 48-72 hours later by adding a lysis buffer and the substrate (Catalog number Glo-lysis buffer E2661 and Bright-Glo leuciferase system E2620 Promega, Madison, Wis.). Cells should not be too confluent during the assay. Percent inhibition of replication was plotted relative to no compound control. Under the same condition, cytotoxicity of the compounds was determined using cell proliferation reagent, WST-1 (Roche, Germany). The compounds showing potent antiviral activities, but no significant cytotoxicities were chosen for further evaluation. For these determinations, a 10-point, 2-fold serial dilution for each compound was used which spans a concentration range of 1000 fold. IC50 and TC50 values were calculated by fitting % inhibition at each concentration to the following equation: % inhibition=100%/[(IC50/[I])^b+1] where b is Hill's coefficient.
The % inhibition at a particular concentration was determined using the following equation: % Inhibition=100−[100*(Lum with inhibitor-bg)/(Lum with no inhibitor-bg)] where bg was the background with no replicon cell, and Lum was the luminescence intensity of the reporter luciferase gene.

Point of comparison: `Cc1nc(C)c(-c2ccc3cc(-c4c(C5CCCCC5)cc(C(=O)O)n4CC(=O)OC(C)(C)C)ccc3n2)s1` [Compound 31, 1-((tert-butoxycarbonyl)methyl)-4-cyclohexyl-5-(2-(2,4-dimethylthiazol-5-yl)quinolin-6-yl)-1H-pyrrole-2-carboxylic acid], inhibition at 33 µM 48%. Against it:
- Cc1nc(C)c(-c2ccc3cc(-c4c(C5CCCCC5)cc(C(=O)O)n4CC(=O)O)ccc3n2)s1 [Compound 30, 1-(carboxymethyl)-4-cyclohexyl-5-(2-(2,4-dimethylthiazol-5-yl)quinolin-6-yl)-1H-pyrrole-2-carboxylic acid] — lower, 22%
- Cc1nc(C)c(-c2ccc3cc(-c4c(C5CCCCC5)cc(C(=O)O)n4CC(=O)N4CCOCC4)ccc3n2)s1 [Compound 32, 4-cyclohexyl-5-(2-(2,4-dimethylthiazol-5-yl)quinolin-6-yl)-1-(2-morpholino-2-oxoethyl)-1H-pyrrole-2-carboxylic acid] — higher, 57%
- Cc1nc(C)c(-c2ccc3cc(-c4c(C5CCCCC5)cc(C(=O)NCC(=O)O)n4CC(=O)N4CCOCC4)ccc3n2)s1 [Compound 33, 2-(4-cyclohexyl-5-(2-(2,4-dimethylthiazol-5-yl)quinolin-6-yl)-1-(2-morpholino-2-oxoethyl)-1H-pyrrole-2-carboxamido)acetic acid] — lower, 17%
